Results reported in patent US10485235B2, “Aryloxypyrimidinyl ethers as herbicides” (FMC Corporation, priority 2015, dated 2019).

Experiments:
Assay type in all cases: in vivo
[1] = system: sedge, umbrella (small-flower umbrella sedge, Cyperus difformis); assay: Test B flooded paddy test, umbrella sedge; details: 250 g ai/ha, Flood; visual rating after 13 to 15 days; scale 0 to 100, 0 is no effect, 100 is complete control
Procedure: (§1) Plant species in the flooded paddy test selected from rice (Oryza sativa), sedge, umbrella (small-flower umbrella sedge, Cyperus difformis), ducksalad (Heteranthera limosa), and barnyardgrass (Echinochloa crus-galli) were grown to the 2-leaf stage for testing. At time of treatment, test pots were flooded to 3 cm above the soil surface, treated by application of test compounds directly to the paddy water, and then maintained at that water depth for the duration of the test. Treated plants and controls were maintained in a greenhouse for 13 to 15 days, after which time all species were compared to controls and visually evaluated. Plant response ratings, summarized in Table B, are based on a scale of 0 to 100 where 0 is no effect and 100 is complete control. A dash (—) response means no test result.

[2] = system: ragweed (common ragweed, Ambrosia elatior); assay: Test A postemergence, ragweed; details: postemergence, 0 to 100 scale, 0 is no effect, 100 is complete control, approximately 10 days
Source text: (§2) Seeds of plant species selected from barnyardgrass (Echinochloa crus-galli), kochia (Kochia scoparia), ragweed (common ragweed, Ambrosia elatior), ryegrass, Italian (Italian ryegrass, Lolium multiflorum), foxtail, giant (giant foxtail, Setaria faberii), and pigweed (Amaranthus retroflexus), were planted into a blend of loam soil and sand and treated preemergence with a directed soil spray using test chemicals formulated in a non-phytotoxic solvent mixture which included a surfactant.
(§3) At the same time, plants selected from these weed species and also wheat (Triticum aestivum), corn (Zea mays), blackgrass (Alopecurus myosuroides), and galium (catchweed bedstraw, Galium aparine), were planted in pots containing the same blend of loam soil and sand and treated with postemergence applications of test chemicals formulated in the same manner. Plants ranged in height from 2 to 10 cm and were in the one- to two-leaf stage for the postemergence treatment. Treated plants and untreated controls were maintained in a greenhouse for approximately 10 days, after which time all treated plants were compared to untreated controls and visually evaluated for injury. Plant response ratings, summarized in Table A, are based on a 0 to 100 scale where 0 is no effect and 100 is complete control. A dash (—) response means no test result.

[3] = system: kochia (Kochia scoparia); assay: Test A postemergence, kochia; details: postemergence, 0 to 100 scale, 0 is no effect, 100 is complete control, approximately 10 days
Source text: as §2, §3

[4] = system: barnyardgrass (Echinochloa crus-galli); assay: Test A preemergence, barnyardgrass; details: Preemergence, 0 to 100 scale (0 no effect, 100 complete control)
Source text: as §2, §3

[5] = system: ryegrass, Italian (Italian ryegrass, Lolium multiflorum); assay: Test A preemergence, Italian ryegrass; details: Preemergence, 0 to 100 scale (0 no effect, 100 complete control)
Source text: as §2, §3

[6] = system: ducksalad (Heteranthera limosa); assay: Test B flooded paddy test, ducksalad; details: 250 g ai/ha, Flood; visual rating after 13 to 15 days; scale 0 to 100, 0 is no effect, 100 is complete control
Procedure: as §1

[7] = system: rice (Oryza sativa); assay: Test B flooded paddy test, rice; details: 250 g ai/ha, Flood; visual rating after 13 to 15 days; scale 0 to 100, 0 is no effect, 100 is complete control
Procedure: as §1

[8] = system: corn (Zea mays); assay: Test A postemergence, corn; details: postemergence, 0 to 100 scale, 0 is no effect, 100 is complete control, approximately 10 days
Source text: as §2, §3

[9] = system: kochia (Kochia scoparia); assay: Test A preemergence, kochia; details: Preemergence, 0 to 100 scale (0 no effect, 100 complete control)
Source text: as §2, §3

[10] = system: pigweed (Amaranthus retroflexus); assay: Test A preemergence, pigweed; details: Preemergence, 0 to 100 scale (0 no effect, 100 complete control)
Source text: as §2, §3

[11] = system: pigweed (Amaranthus retroflexus); assay: Test A postemergence, pigweed; details: postemergence, 0 to 100 scale, 0 is no effect, 100 is complete control, approximately 10 days
Source text: as §2, §3

[12] = system: barnyardgrass (Echinochloa crus-galli); assay: Test A postemergence, barnyardgrass; details: postemergence, 0 to 100 scale, 0 is no effect, 100 is complete control, approximately 10 days
Source text: as §2, §3

[13] = system: blackgrass (Alopecurus myosuroides); assay: Test A postemergence, blackgrass; details: postemergence, 0 to 100 scale, 0 is no effect, 100 is complete control, approximately 10 days
Source text: as §2, §3

[14] = system: barnyardgrass (Echinochloa crus-galli); assay: Test B flooded paddy test, barnyardgrass; details: 250 g ai/ha, Flood; visual rating after 13 to 15 days; scale 0 to 100, 0 is no effect, 100 is complete control
Procedure: as §1

[15] = system: galium (catchweed bedstraw, Galium aparine); assay: Test A postemergence, galium; details: postemergence, 0 to 100 scale, 0 is no effect, 100 is complete control, approximately 10 days
Source text: as §2, §3

[16] = system: foxtail, giant (giant foxtail, Setaria faberii); assay: Test A postemergence, giant foxtail; details: postemergence, 0 to 100 scale, 0 is no effect, 100 is complete control, approximately 10 days
Source text: as §2, §3

[17] = system: ragweed (common ragweed, Ambrosia elatior); assay: Test A preemergence, ragweed; details: Preemergence, 0 to 100 scale (0 no effect, 100 complete control)
Source text: as §2, §3

[18] = system: ryegrass, Italian (Italian ryegrass, Lolium multiflorum); assay: Test A postemergence, Italian ryegrass; details: postemergence, 0 to 100 scale, 0 is no effect, 100 is complete control, approximately 10 days
Source text: as §2, §3

[19] = system: foxtail, giant (giant foxtail, Setaria faberii); assay: Test A preemergence, giant foxtail; details: Preemergence, 0 to 100 scale (0 no effect, 100 complete control)
Source text: as §2, §3

[20] = system: wheat (Triticum aestivum); assay: Test A postemergence, wheat; details: postemergence, 0 to 100 scale, 0 is no effect, 100 is complete control, approximately 10 days
Source text: as §2, §3

SMILES: N#Cc1cccc(Oc2ncc(Cl)cn2)c1OCc1ccc(Cl)cn1 [Compound 6]
- Plant response rating, Sedge, Umbrella [1]: 0
- Plant response rating, Ragweed ([2]; 31 g ai/ha): 0
- Plant response rating, Ragweed ([2]; 125 g ai/ha): 0
- Plant response rating, Kochia ([3]; 31 g ai/ha): 10
- Plant response rating, Kochia ([3]; 125 g ai/ha): 60
- Plant response rating, Barnyardgrass ([4]; 31 g ai/ha): 0
- Plant response rating, Barnyardgrass ([4]; 125 g ai/ha): 0
- Plant response rating, Ryegrass, Italian ([5]; 31 g ai/ha): 0
- Plant response rating, Ryegrass, Italian ([5]; 125 g ai/ha): 0
- Plant response rating, Ducksalad [6]: 0
- Plant response rating, Rice [7]: 0
- Plant response rating, Corn ([8]; 31 g ai/ha): 10
- Plant response rating, Corn ([8]; 125 g ai/ha): 20
- Plant response rating, Kochia ([9]; 31 g ai/ha): 0
- Plant response rating, Kochia ([9]; 125 g ai/ha): 0
- Plant response rating, Pigweed ([10]; 31 g ai/ha): 10
- Plant response rating, Pigweed ([10]; 125 g ai/ha): 90
- Plant response rating, Pigweed ([11]; 31 g ai/ha): 20
- Plant response rating, Pigweed ([11]; 125 g ai/ha): 80
- Plant response rating, Barnyardgrass ([12]; 31 g ai/ha): 0
- Plant response rating, Barnyardgrass ([12]; 125 g ai/ha): 10
- Plant response rating, Blackgrass ([13]; 31 g ai/ha): 0
- Plant response rating, Blackgrass ([13]; 125 g ai/ha): 10
- Plant response rating, Barnyardgrass [14]: 0
- Plant response rating, Galium ([15]; 31 g ai/ha): 30
- Plant response rating, Galium ([15]; 125 g ai/ha): 40
- Plant response rating, Foxtail, Giant ([16]; 31 g ai/ha): 0
- Plant response rating, Foxtail, Giant ([16]; 125 g ai/ha): 10
- Plant response rating, Ragweed ([17]; 31 g ai/ha): 0
- Plant response rating, Ragweed ([17]; 125 g ai/ha): 0
- Plant response rating, Ryegrass, Italian ([18]; 31 g ai/ha): 0
- Plant response rating, Ryegrass, Italian ([18]; 125 g ai/ha): 0
- Plant response rating, Foxtail, Giant ([19]; 31 g ai/ha): 0
- Plant response rating, Foxtail, Giant ([19]; 125 g ai/ha): 20
- Plant response rating, Wheat ([20]; 31 g ai/ha): 0
- Plant response rating, Wheat ([20]; 125 g ai/ha): 0

SMILES: Fc1cccc(Oc2ncc(Cl)cn2)c1OC/C=C/Cl [Compound 9]
- Plant response rating, Sedge, Umbrella [1]: 80
- Plant response rating, Ragweed ([2]; 125 g ai/ha): 0
- Plant response rating, Ragweed ([2]; 500 g ai/ha): 0
- Plant response rating, Kochia ([3]; 125 g ai/ha): 70
- Plant response rating, Kochia ([3]; 500 g ai/ha): 100
- Plant response rating, Barnyardgrass ([4]; 125 g ai/ha): 40
- Plant response rating, Barnyardgrass ([4]; 500 g ai/ha): 100
- Plant response rating, Ryegrass, Italian ([5]; 125 g ai/ha): 0
- Plant response rating, Ryegrass, Italian ([5]; 500 g ai/ha): 20
- Plant response rating, Ducksalad [6]: 80
- Plant response rating, Rice [7]: 0
- Plant response rating, Corn ([8]; 125 g ai/ha): 10
- Plant response rating, Corn ([8]; 500 g ai/ha): 30
- Plant response rating, Kochia ([9]; 125 g ai/ha): 40
- Plant response rating, Kochia ([9]; 500 g ai/ha): 100
- Plant response rating, Pigweed ([10]; 125 g ai/ha): 80
- Plant response rating, Pigweed ([10]; 500 g ai/ha): 100
- Plant response rating, Pigweed ([11]; 125 g ai/ha): 60
- Plant response rating, Pigweed ([11]; 500 g ai/ha): 100
- Plant response rating, Barnyardgrass ([12]; 125 g ai/ha): 20
- Plant response rating, Barnyardgrass ([12]; 500 g ai/ha): 80
- Plant response rating, Blackgrass ([13]; 125 g ai/ha): 10
- Plant response rating, Blackgrass ([13]; 500 g ai/ha): 70
- Plant response rating, Barnyardgrass [14]: 0
- Plant response rating, Galium ([15]; 125 g ai/ha): 60
- Plant response rating, Galium ([15]; 500 g ai/ha): 90
- Plant response rating, Foxtail, Giant ([16]; 125 g ai/ha): 20
- Plant response rating, Foxtail, Giant ([16]; 500 g ai/ha): 80
- Plant response rating, Ragweed ([17]; 125 g ai/ha): 0
- Plant response rating, Ragweed ([17]; 500 g ai/ha): 0
- Plant response rating, Ryegrass, Italian ([18]; 125 g ai/ha): 0
- Plant response rating, Ryegrass, Italian ([18]; 500 g ai/ha): 10
- Plant response rating, Foxtail, Giant ([19]; 125 g ai/ha): 100
- Plant response rating, Foxtail, Giant ([19]; 500 g ai/ha): 100
- Plant response rating, Wheat ([20]; 125 g ai/ha): 0
- Plant response rating, Wheat ([20]; 500 g ai/ha): 10

SMILES: Cc1cccc(Oc2ncc(Cl)cn2)c1OC/C=C/Cl [Compound 59]
- Plant response rating, Sedge, Umbrella [1]: 90
- Plant response rating, Ragweed ([2]; 31 g ai/ha): 0
- Plant response rating, Ragweed ([2]; 125 g ai/ha): 0
- Plant response rating, Barnyardgrass ([4]; 31 g ai/ha): 30
- Plant response rating, Barnyardgrass ([4]; 125 g ai/ha): 100
- Plant response rating, Ryegrass, Italian ([5]; 31 g ai/ha): 0
- Plant response rating, Ryegrass, Italian ([5]; 125 g ai/ha): 0
- Plant response rating, Ducksalad [6]: 100
- Plant response rating, Rice [7]: 0
- Plant response rating, Corn ([8]; 31 g ai/ha): 0
- Plant response rating, Corn ([8]; 125 g ai/ha): 10
- Plant response rating, Kochia ([9]; 31 g ai/ha): 60
- Plant response rating, Kochia ([9]; 125 g ai/ha): 100
- Plant response rating, Pigweed ([10]; 31 g ai/ha): 20
- Plant response rating, Pigweed ([10]; 125 g ai/ha): 100
- Plant response rating, Pigweed ([11]; 31 g ai/ha): 40
- Plant response rating, Pigweed ([11]; 125 g ai/ha): 70
- Plant response rating, Barnyardgrass ([12]; 31 g ai/ha): 40
- Plant response rating, Barnyardgrass ([12]; 125 g ai/ha): 100
- Plant response rating, Blackgrass ([13]; 31 g ai/ha): 0
- Plant response rating, Blackgrass ([13]; 125 g ai/ha): 50
- Plant response rating, Barnyardgrass [14]: 20
- Plant response rating, Galium ([15]; 31 g ai/ha): 90
- Plant response rating, Galium ([15]; 125 g ai/ha): 30
- Plant response rating, Foxtail, Giant ([16]; 31 g ai/ha): 20
- Plant response rating, Foxtail, Giant ([16]; 125 g ai/ha): 50
- Plant response rating, Ragweed ([17]; 31 g ai/ha): 0
- Plant response rating, Ragweed ([17]; 125 g ai/ha): 0
- Plant response rating, Ryegrass, Italian ([18]; 31 g ai/ha): 0
- Plant response rating, Ryegrass, Italian ([18]; 125 g ai/ha): 0
- Plant response rating, Foxtail, Giant ([19]; 31 g ai/ha): 10
- Plant response rating, Foxtail, Giant ([19]; 125 g ai/ha): 50
- Plant response rating, Wheat ([20]; 31 g ai/ha): 0
- Plant response rating, Wheat ([20]; 125 g ai/ha): 0
